This is an account of results in PMC11064632, “Tetracyclic homoisoflavanoid (+)-brazilin: a natural product inhibits c-di-AMP-producing enzyme and Streptococcus mutans biofilms” (Microbiology Spectrum, 2024).

Structures can show the parent of a compound that is named as a salt.

The term inhibition denotes the percentage by which the read-out fell short of the control. For orientation: Kd means the concentration at which binding is half-saturated. A low value points to higher affinity. As usually defined, the Km is the substrate concentration at which the rate is half of its maximum. A word on the Vmax: it is the top rate of the reaction or transport when substrate is in excess.

Data set [1] has as its target T1, smDAC (S. mutans diadenylate cyclase, CdaA/DacA family) (Streptococcus mutans, UniProt Q8DTC4).
T1 construct: recombinant smDAC (from 116aa to 265aa)
The data set can be described thus: biochemical. Also on record: HPLC quantification of conversion of ATP into c-di-AMP by recombinant smDAC. Particulars: read-out: Normalized Enzymatic Inhibition (%). The procedure: Eleven “hits” were validated using HPLC to eliminate false positives from the coralyne assay. […] (+)-Brazilin (NSC 8661), showing the greatest inhibitory activity, was further studied in a dose-dependent manner. Representative chromatograms of ATP (100 µM) and c-di-AMP (50 µM) standards were used as references to validate retention times (Fig. 3A and B). […] Representative chromatograms of HPLC reactions treated with dose-dependent concentrations were also obtained (Fig. S5). Excitingly, (+)-brazilin inhibited the conversion of ATP into c-di-AMP in a dose-dependent manner with an IC50 value of 25.1 ± 0.98 µM (Fig. 3H; Table S1). […] HPLC was also used to evaluate and compare bromophenol thiohydantoin, suramin, and tannic acid, all reported tmDisA inhibitors, to brazilin and 10% DMSO negative control.

Data set [2] addresses T1, smDAC (S. mutans diadenylate cyclase, CdaA/DacA family). In words: intrinsic tyrosine fluorescence quenching (modified Stern-Volmer); supported by HPLC enzyme inhibition, IC50 […], Ki […]. Type of data set: binding.
For data set [3], the system named is Nc1ncnc2c1ncn2[C@@H]1O[C@H](COP(=O)(O)OP(=O)(O)OP(=O)(O)O)[C@@H](O)[C@H]1O. In words: purified protein. Particulars: Mn2+ substrate-binding site.

T1 sequence (Q8DTC4 entry or part of it): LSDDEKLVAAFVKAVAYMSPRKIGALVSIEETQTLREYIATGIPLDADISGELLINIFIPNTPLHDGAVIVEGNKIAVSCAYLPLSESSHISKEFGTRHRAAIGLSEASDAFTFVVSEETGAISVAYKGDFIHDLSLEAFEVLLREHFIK

Regarding `Cc1ccc(C(=O)Nc2ccc(S(=O)(=O)O)c3cc(S(=O)(=O)O)cc(S(=O)(=O)O)c23)cc1NC(=O)c1cccc(NC(=O)Nc2cccc(C(=O)Nc3cc(C(=O)Nc4ccc(S(=O)(=O)O)c5cc(S(=O)(=O)O)cc(S(=O)(=O)O)c45)ccc3C)c2)c1` [suramin hexasodium salt], the inhibition at 50 µM in data set [1] turned out to be 1.2%.
Still for that read-out and setting: in the case of `O=C(OC[C@H]1O[C@@H](OC(=O)c2cc(O)c(O)c(OC(=O)c3cc(O)c(O)c(O)c3)c2)[C@H](OC(=O)c2cc(O)c(O)c(OC(=O)c3cc(O)c(O)c(O)c3)c2)[C@@H](OC(=O)c2cc(O)c(O)c(OC(=O)c3cc(O)c(O)c(O)c3)c2)[C@@H]1OC(=O)c1cc(O)c(O)c(OC(=O)c2cc(O)c(O)c(O)c2)c1)c1cc(O)c(O)c(OC(=O)c2cc(O)c(O)c(O)c2)c1` [tannic acid] it was 22.2%.
In data set [2], `Oc1ccc2c(c1)OC[C@]1(O)Cc3cc(O)c(O)cc3[C@H]21` [NSC 8661, (+)-brazilin] returned a Kd of 11.9 µM. Moreover, in data set [1], the inhibition at 50 µM came out at 77.8% and the inhibition at 100 µM amounted to 87.1%.
Take “smDAC (S. mutans diadenylate cyclase, CdaA/DacA family) (Streptococcus mutans UA159)”: in data set [3], the Km is listed as 93.0 ± 3.98 µM and the Vmax is 5.54 µM/min.
For `O=C1NC(=S)N/C1=C\c1cc(Br)cc(Br)c1O` [bromophenol thiohydantoin], the inhibition at 50 µM in data set [1] turned out to be 3.7%.
